Reference: patent publication US12226424B2, “Target protein degradation compounds, their anti-tumor use, their intermediates and use of intermediates” (ShanghaiTech University, priority 2018, dated 2025)

Columns and labels:
[1] = test system: MM1S cells; experiment: Half inhibitory concentration (IC50) on BET-expressing tumor cells, CCK-8, MM1S; type: cell-based; details: Homo sapiens, MM1.S, 48/72 h, read-out: IC50 (nM)/MM1S cell line
Experimental: BET-expressing cells MV-4-11 cells (human B granulocytic leukemia cells), MDA-MB-231 cells (human breast cancer cells), MDA-MB-468 cells (human breast cancer cells), MDA-MB-453 Cells (human breast cancer cells), MM1S cells (myeloma (immunoglobulin A lambda), B lymphoblasts) and SR cells (human large cell immunoblast lymphoma) were purchased from the American Type Culture Collection (ATCC).
The cells used in this present disclosure were cultured in a 37° C. incubator containing 5% CO2. The complete cell culture medium was RPMI 1640/IMDM/DMEM medium with 10% fetal bovine serum, and the final concentrations of penicillin and streptomycin were 100 U/mL, respectively. All cells were tested negative for mycoplasma with mycoplasma detection kit before the experiment.
Determination of the Half Inhibitory Concentration (IC50) of PROTAD Compounds on Tumor Cells
MV-411 cells, MM1S cells and SR cells were seeded in 100 μL IMDM/RPMI1640/DMEM complete medium at a density of 15000/10000 cells/well; MDA-MB-231 cells, MDA-MB-468 cells, and MDA-MB453 cells were seeded in 100 μL IMDM/RPMI1640/DMEM complete medium at a density of 3000/5000 cells/well, respectively. 100 μL of the inoculated cells were treated with 0.5 μL diluted PROTAD compounds of the present disclosure to be tested at 10 successively decreasing concentrations (starting at the highest concentration of 10 μM; 5-fold serial dilutions). After the cells were treated with the tested drugs 48/72 h, the cell viability was determined according to the CCK-8 reagent manual. The negative control was DMSO, and the positive control was a commercial inhibitor. After CCK-8 treatment for 2 h, the value of O.D.450 was measured using a microplate reader.

[2] = test system: MV-4-11 cells; experiment: Half inhibitory concentration (IC50) on BET-expressing tumor cells, CCK-8, MV-4-11; details: Homo sapiens, MV4-11, read-out: IC50 (nM)/MV-4-11 cell line, MV-4-11 cells, 48/72 h, CCK-8
[3] = target: ALK protein (Homo sapiens, UniProt Q9UM73); experiment: Western-blot half degradation concentration (DC50) of ALK protein in H3122 cells; type: cell-based; details: 24 h drug treatment, read-out: DC50 (nM)/ H3122 cell line
ALK protein, sequence (Q9UM73 with tags, fused parts or gaps): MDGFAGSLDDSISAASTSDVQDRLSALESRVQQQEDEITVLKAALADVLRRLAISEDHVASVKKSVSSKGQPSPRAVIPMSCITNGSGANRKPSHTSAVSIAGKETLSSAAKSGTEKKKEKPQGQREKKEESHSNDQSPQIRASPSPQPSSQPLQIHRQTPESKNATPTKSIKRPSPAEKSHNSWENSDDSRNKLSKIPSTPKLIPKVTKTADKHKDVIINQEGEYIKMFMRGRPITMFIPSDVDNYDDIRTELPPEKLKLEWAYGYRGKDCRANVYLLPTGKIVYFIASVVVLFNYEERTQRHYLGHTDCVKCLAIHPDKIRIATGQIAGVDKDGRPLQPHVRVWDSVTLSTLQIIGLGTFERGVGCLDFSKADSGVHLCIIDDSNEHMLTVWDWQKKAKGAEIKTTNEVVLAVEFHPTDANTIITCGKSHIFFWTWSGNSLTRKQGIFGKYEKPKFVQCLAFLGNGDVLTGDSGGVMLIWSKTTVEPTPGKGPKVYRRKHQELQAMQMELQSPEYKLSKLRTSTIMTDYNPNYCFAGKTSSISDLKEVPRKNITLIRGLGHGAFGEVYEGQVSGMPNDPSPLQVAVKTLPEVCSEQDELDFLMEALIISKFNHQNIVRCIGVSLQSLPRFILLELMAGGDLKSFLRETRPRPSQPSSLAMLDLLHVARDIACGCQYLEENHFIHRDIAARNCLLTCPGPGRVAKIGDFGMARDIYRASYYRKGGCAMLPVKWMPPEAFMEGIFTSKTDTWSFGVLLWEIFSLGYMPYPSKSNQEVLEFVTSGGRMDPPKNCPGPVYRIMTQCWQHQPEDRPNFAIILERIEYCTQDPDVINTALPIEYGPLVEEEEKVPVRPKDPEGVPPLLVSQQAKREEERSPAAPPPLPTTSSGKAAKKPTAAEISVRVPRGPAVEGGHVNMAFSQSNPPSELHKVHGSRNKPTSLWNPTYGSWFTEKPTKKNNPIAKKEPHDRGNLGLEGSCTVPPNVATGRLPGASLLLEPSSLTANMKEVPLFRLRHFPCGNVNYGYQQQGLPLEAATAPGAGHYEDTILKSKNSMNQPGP
Experimental: (§1) ALK-positive SR cells (human large cell immunoblastic lymphoma) were purchased from the American Type Culture Collection (ATCC); H3122 cells (human non-small cell lung cancer) were from the Shanghai University of Science and Technology Lin Haifan's research group.
(§2) The cells used in this present disclosure were cultured in a 37° C. incubator containing 5% CO2.
DC50 (drug concentration corresponding to protein degradation to 50%) calculation: according to the gray value of the corresponding Western blotting band after drug treatment, fitting the relationship curve between drug concentration and gray value to calculate the drug concentration range corresponding to half of the gray value.

[4] = test system: SR cells; experiment: Half inhibitory concentration (IC50) on ALK-positive SR cell proliferation (CCK-8); type: cell-based; details: Homo sapiens; SR cells, 72 h drug treatment, CCK-8; read-out: IC50 (nM)/ SR cell line
Experimental: as §1, §2
SR cells were seeded in 100 μL RPMI1640 complete medium at a density of 10,000 cells/well. 100 μL of the inoculated cells were treated with 0.5 μL diluted PROTAD compound of the present disclosure to be tested at 10 successively decreasing concentrations (starting at the highest concentration of 10 μM; 5-fold serial dilutions) After the cells were treated with the drug for 72 h, cell viability was determined according to the CCK-8 reagent operating instructions. The negative control was DMSO, and the positive control was a commercial inhibitor. After CCK-8 treatment for 2 h, the value of O.D.450 was measured using a microplate reader.

Row | Structure (SMILES) | IC50 [1] [nM] | IC50 [2] [nM] | DC50 [3] [nM] | IC50 [4] [nM]
1 | Cc1sc2c(c1C)C(c1ccc(Cl)cc1)=N[C@@H](CC(=O)NCCCCNC(=O)CSc1cccc3c1C(=O)N(C1CCC(=O)NC1=O)C3=O)c1nnc(C)n1-2 (stereo partly drawn) [SIAIS213075, 2-((S)-4-(4-chlorophenyl)-2,3,9-trimethyl-6H-thieno[3,2-f][1,2,4]triazolo[4,3-a][1,4]diazepin-6-yl)-N-(4-(2-((2-(2,6-dioxopiperidin-3-yl)-1,3-dioxoisoindolin-4-yl)thio)acetamido)butyl)acetamide] | 96.1 | 6.5 ± 2.5 | – | –
2 | CCc1cc2c(cc1N1CCN(C(=O)CCCCCSc3cccc4c3C(=O)N(C3CCC(=O)NC3=O)C4=O)CC1)C(C)(C)c1[nH]c3cc(C#N)ccc3c1C2=O (stereo not drawn) [SIAIS164071, 8-(4-(6-((2-(2,6-dioxopiperidin-3-yl)-1,3-dioxoisoindolin-4-yl)thio)hexanoyl)piperazin-1-yl)-9-ethyl-6,6-dimethyl-11-oxo-6,11-dihydro-5H-benzo[b]carbazole-3-carbonitrile] | – | – | 204 | –
3 | COc1cc(N2CCN(C(=O)CSc3cccc4c3C(=O)N(C3CCC(=O)NC3=O)C4=O)CC2)ccc1Nc1ncc(Cl)c(Nc2ccccc2P(C)(C)=O)n1 (stereo not drawn) [SIAIS1197113, 4-((2-(4-(4-((5-chloro-4-((2-(dimethylphosphoryl)phenyl)amino)pyrimidin-2-yl)amino)-3-methoxyphenyl)piperazin-1-yl)-2-oxoethyl)thio)-2-(2,6-dioxopiperidin-3-yl)isoindoline-1,3-dione] | – | – | 100 | 23.6 ± 19.4
4 | CCc1cc2c(cc1N1CCN(C(=O)CCSc3cccc4c3C(=O)N(C3CCC(=O)NC3=O)C4=O)CC1)C(C)(C)c1[nH]c3cc(C#N)ccc3c1C2=O (stereo not drawn) [SIAIS164069, 8-(4-(3-((2-(2,6-dioxopiperidin-3-yl)-1,3-dioxoisoindolin-4-yl)thio)propanoyl)piperazin-1-yl)-9-ethyl-6,6-dimethyl-11-oxo-6,11-dihydro-5H-benzo[b]carbazole-3-carbonitrile] | – | – | 100 to 500 | –
5 | CCc1cc2c(cc1N1CCN(C(=O)CCCCSc3cccc4c3C(=O)N(C3CCC(=O)NC3=O)C4=O)CC1)C(C)(C)c1[nH]c3cc(C#N)ccc3c1C2=O (stereo not drawn) [SIAIS164072, 8-(4-(5-((2-(2,6-dioxopiperidin-3-yl)-1,3-dioxoisoindolin-4-yl)thio)pentanoyl)piperazin-1-yl)-9-ethyl-6,6-dimethyl-11-oxo-6,11-dihydro-5H-benzo[b]carbazole-3-carbonitrile] | – | – | 63 | –
6 | CCc1cc2c(cc1N1CCN(C(=O)CCCCCCSc3cccc4c3C(=O)N(C3CCC(=O)NC3=O)C4=O)CC1)C(C)(C)c1[nH]c3cc(C#N)ccc3c1C2=O (stereo not drawn) [SIAIS164073, 8-(4-(7-((2-(2,6-dioxopiperidin-3-yl)-1,3-dioxoisoindolin-4-yl)thio)heptanoyl)piperazin-1-yl)-9-ethyl-6,6-dimethyl-11-oxo-6,11-dihydro-5H-benzo[b]carbazole-3-carbonitrile] | – | – | 100 to 500 | –
7 | COc1cc(N2CCN(C(=O)CCCCCCSc3cccc4c3C(=O)N(C3CCC(=O)NC3=O)C4=O)CC2)ccc1Nc1ncc(Cl)c(Nc2ccccc2P(C)(C)=O)n1 (stereo not drawn) [SIAIS1197159, 4-((7-(4-(4-((5-chloro-4-((2-(dimethylphosphoryl)phenyl)amino)pyrimidin-2-yl)amino)-3-methoxyphenyl)piperazin-1-yl)-7-oxoheptyl)thio)-2-(2,6-dioxopiperidin-3-yl)isoindoline-1,3-dione] | – | – | 500 | 10 ± 5.7
8 | COc1cc(N2CCN(C(=O)CCCSc3cccc4c3C(=O)N(C3CCC(=O)NC3=O)C4=O)CC2)ccc1Nc1ncc(Cl)c(Nc2ccccc2P(C)(C)=O)n1 (stereo not drawn) [SIAIS1197117, 4-((4-(4-(4-((5-chloro-4-((2-(dimethylphosphoryl)phenyl)amino)pyrimidin-2-yl)amino)-3-methoxyphenyl)piperazin-1-yl)-4-oxobutyl)thio)-2-(2,6-dioxopiperidin-3-yl)isoindoline-1,3-dione] | – | – | 500 | 16.9 ± 12
9 | COc1cc(N2CCC(NC(=O)CCSc3cccc4c3C(=O)N(C3CCC(=O)NC3=O)C4=O)CC2)ccc1Nc1ncc(Cl)c(Nc2ccccc2P(C)(C)=O)n1 (stereo not drawn) [SIAIS164138, N-(1-(4-((5-chloro-4-((2-(dimethylphosphoryl)phenyl)amino)pyrimidin-2-yl)amino)-3-methoxyphenyl)piperidin-4-yl)-3-((2-(2,6-dioxopiperidin-3-yl)-1,3-dioxoisoindolin-4-yl)thio)propanamide] | – | – | 100 | 24.1 ± 17.5
10 | COc1cc(N2CCC(NC(=O)CCCCCCSc3cccc4c3C(=O)N(C3CCC(=O)NC3=O)C4=O)CC2)ccc1Nc1ncc(Cl)c(Nc2ccccc2P(C)(C)=O)n1 (stereo not drawn) [SIAIS164142, N-(1-(4-((5-chloro-4-((2-(dimethylphosphoryl)phenyl)amino)pyrimidin-2-yl)amino)-3-methoxyphenyl)piperidin-4-yl)-7-((2-(2,6-dioxopiperidin-3-yl)-1,3-dioxoisoindolin-4-yl)thio)heptanamide] | – | – | 50 | 6.4 ± 4
11 | COc1cc(N2CCN(C(=O)CCSc3cccc4c3C(=O)N(C3CCC(=O)NC3=O)C4=O)CC2)ccc1Nc1ncc(Cl)c(Nc2ccccc2P(C)(C)=O)n1 (stereo not drawn) [SIAIS1197115, 4-((3-(4-(4-((5-chloro-4-((2-(dimethylphosphoryl)phenyl)amino)pyrimidin-2-yl)amino)-3-methoxyphenyl)piperazin-1-yl)-3-oxopropyl)thio)-2-(2,6-dioxopiperidin-3-yl)isoindoline-1,3-dione] | – | – | 500 | 42 ± 29.3
12 | CCc1cc2c(cc1N1CCN(C(=O)CSc3cccc4c3C(=O)N(C3CCC(=O)NC3=O)C4=O)CC1)C(C)(C)c1[nH]c3cc(C#N)ccc3c1C2=O (stereo not drawn) [SIAIS164068, 8-(4-(2-((2-(2,6-dioxopiperidin-3-yl)-1,3-dioxoisoindolin-4-yl)thio)acetyl)piperazin-1-yl)-9-ethyl-6,6-dimethyl-11-oxo-6,11-dihydro-5H-benzo[b]carbazole-3-carbonitrile] | – | – | 104 | –
13 | COc1cc(N2CCN(C(=O)CCCCSc3cccc4c3C(=O)N(C3CCC(=O)NC3=O)C4=O)CC2)ccc1Nc1ncc(Cl)c(Nc2ccccc2P(C)(C)=O)n1 (stereo not drawn) [SIAIS1197119, 4-((5-(4-(4-((5-chloro-4-((2-(dimethylphosphoryl)phenyl)amino)pyrimidin-2-yl)amino)-3-methoxyphenyl)piperazin-1-yl)-5-oxopentyl)thio)-2-(2,6-dioxopiperidin-3-yl)isoindoline-1,3-dione] | – | – | 500 | 13.2 ± 2.6
14 | COc1cc(N2CCC(NC(=O)CSc3cccc4c3C(=O)N(C3CCC(=O)NC3=O)C4=O)CC2)ccc1Nc1ncc(Cl)c(Nc2ccccc2P(C)(C)=O)n1 (stereo not drawn) [SIAIS164137, N-(1-(4-((5-chloro-4-((2-(dimethylphosphoryl)phenyl)amino)pyrimidin-2-yl)amino)-3-methoxyphenyl)piperidin-4-yl)-2-((2-(2,6-dioxopiperidin-3-yl)-1,3-dioxoisoindolin-4-yl)thio)acetamide] | – | – | 500 | 16.8 ± 5.7
15 | COc1cc(N2CCC(NC(=O)CCCSc3cccc4c3C(=O)N(C3CCC(=O)NC3=O)C4=O)CC2)ccc1Nc1ncc(Cl)c(Nc2ccccc2P(C)(C)=O)n1 (stereo not drawn) [SIAIS164139, N-(1-(4-((5-chloro-4-((2-(dimethylphosphoryl)phenyl)amino)pyrimidin-2-yl)amino)-3-methoxyphenyl)piperidin-4-yl)-4-((2-(2,6-dioxopiperidin-3-yl)-1,3-dioxoisoindolin-4-yl)thio)butanamide] | – | – | 500 | 11.6 ± 6
16 | COc1cc(N2CCC(NC(=O)CCCCSc3cccc4c3C(=O)N(C3CCC(=O)NC3=O)C4=O)CC2)ccc1Nc1ncc(Cl)c(Nc2ccccc2P(C)(C)=O)n1 (stereo not drawn) [SIAIS164140, N-(1-(4-((5-chloro-4-((2-(dimethylphosphoryl)phenyl)amino)pyrimidin-2-yl)amino)-3-methoxyphenyl)piperidin-4-yl)-5-((2-(2,6-dioxopiperidin-3-yl)-1,3-dioxoisoindolin-4-yl)thio)pentanamide] | – | – | 500 | 8.7 ± 4.9
